One assay has as its target Chk-1 kinase (Homo sapiens (Human), UniProt O14757). The assay can be described thus: Chk-1 Kinase Inhibiting Activity (33P-ATP filter assay, CHKtide substrate). It counts as biochemical. In short, it runs like this:
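Full-length N-terminal GST-tagged human Chk-1 from insect cells, 0.5 nM final, with 20 μM peptide substrate and 33P-ATP in HEPES pH 7.5 buffer with 1% DMSO. Reaction ran 120 minutes at room temperature; incorporated radioactivity captured on P81 filters and counted for IC50.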

The test system of the next assay is MIA PaCa-2 cells. The assay can be described thus: Gemcitabine Combination Cell Assay (Cell Titer Glo). Format: cell-based. To be noted: for pIC50: Chk1 inhibitor alone, read-out: Chk1 IC50; for pIC50 / 10xLS / 2xLS: MIA PaCa-2 cells, 72 h; for 10xLS: approximate concentration of Chk1 inhibitor that results in a 10-fold reduction in the IC50 of gemcitabine alone; for 2xLS: approximate concentration of Chk1 inhibitor that results in a two-fold reduction in the IC50 of gemcitabine alone. In short, it runs like this: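 MIA PaCa-2 cells were treated 72 h with half-log dilutions of Chk1 inhibitor (top 3000 nM) and gemcitabine (top 100 nM), alone and in full matrix; viability by CellTiter-Glo luminescence. IC50s from four-parameter fit; Chk1 inhibitor concentrations giving two- and ten-fold lowering of gemcitabine IC50 were estimated.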
On the technique in general: In ATP-based viability assays light output follows the ATP content of the culture.

The mark [1] stands for this setting: against Chk-1 kinase, read-out: IC50.

pIC50: −log10 of the molar value. Counter-ions that a name gives are not always drawn. Like-named read-outs stand apart in the source and are kept apart here.

Sequence of Chk-1 kinase (O14757 whole entry): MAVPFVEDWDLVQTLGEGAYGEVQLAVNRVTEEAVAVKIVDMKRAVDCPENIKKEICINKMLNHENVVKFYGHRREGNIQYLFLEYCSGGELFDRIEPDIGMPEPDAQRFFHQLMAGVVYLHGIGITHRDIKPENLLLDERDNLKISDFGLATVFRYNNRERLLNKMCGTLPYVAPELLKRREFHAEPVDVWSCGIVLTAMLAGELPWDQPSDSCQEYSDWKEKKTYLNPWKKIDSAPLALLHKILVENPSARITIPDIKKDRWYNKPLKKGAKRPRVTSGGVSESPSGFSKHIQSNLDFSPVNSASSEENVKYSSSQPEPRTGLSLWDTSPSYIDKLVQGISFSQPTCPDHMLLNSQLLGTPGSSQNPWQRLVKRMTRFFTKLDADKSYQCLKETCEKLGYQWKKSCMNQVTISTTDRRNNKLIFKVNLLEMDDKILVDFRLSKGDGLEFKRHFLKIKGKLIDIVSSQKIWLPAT

Consider `CCN1CCC(F)(c2ccc(-c3cc(Nc4cnc(C#N)cn4)n[nH]3)c(OC)c2)CC1` [Example 85, 5-[[5-[4-(1-ethyl-4-fluoro-4-piperidyl)-2-methoxy-phenyl]-1H-pyrazol-3-yl]amino]pyrazine-2-carbonitrile], for which the negative-log IC50 (pIC50) is 9.60 on Chk-1 kinase (setting [1]) and 6.86 in the assay with MIA PaCa-2 cells (Homo sapiens). Further, in the assay with MIA PaCa-2 cells, the “10xLS” value was found to be 100 nM. In addition, the “2xLS” value in the assay on MIA PaCa-2 cells was determined as 3 nM.
On the same counts, the results for `COc1cc(CNC2CCOC2)ccc1-c1cc(Nc2cnc(C#N)cn2)n[nH]1` (stereo not shown) [Example 72, 5-[[5-[2-methoxy-4-[(tetrahydrofuran-3-ylamino)methyl]phenyl]-1H-pyrazol-3-yl]amino]pyrazine-2-carbonitrile] are 9.80, 6.76, 100 nM and 10 nM.
Taken in the same sequence, the figures for `COc1cc(NCCN2CCOCC2)ccc1-c1cc(Nc2cnc(C#N)cn2)n[nH]1` [Example 16, 5-[[5-[2-methoxy-4-(2-morpholinoethylamino)phenyl]-1H-pyrazol-3-yl]amino]pyrazine-2-carbonitrile] were 10.07, 5.75, 100 nM and under 3 nM.
For `COc1cc(CNC(C)C)ccc1-c1cc(Nc2cnc(C#N)cn2)n[nH]1` [Example 59, 5-[[5-[4-[(isopropylamino)methyl]-2-methoxy-phenyl]-1H-pyrazol-3-yl]amino]pyrazine-2-carbonitrile], on Chk-1 kinase (setting [1]), the pIC50 was 10.15. The negative logarithm of the IC50 (pIC50) with MIA PaCa-2 cells (Homo sapiens) is 6.58. In the assay on MIA PaCa-2 cells, the “10xLS” value is recorded as 100 nM and the “2xLS” value was 3 nM.
In the case of `COc1cc(N2CCCN(C)CC2)ccc1-c1cc(Nc2cnc(C#N)cn2)n[nH]1` [Example 23, 5-[[5-[2-methoxy-4-(4-methyl-1,4-diazepan-1-yl)phenyl]-1H-pyrazol-3-yl]amino]pyrazine-2-carbonitrile], the negative logarithm of the IC50 (pIC50) at Chk-1 kinase (setting [1]) was 9.92. Further, the pIC50 in the assay on MIA PaCa-2 cells (Homo sapiens) was 6.58. In addition, in the assay with MIA PaCa-2 cells, the “10xLS” value was under 100 nM and the “2xLS” value was under 3 nM.
For the molecule `COc1cc(OC2CCN(C)CC2)ccc1-c1cc(Nc2cnc(C#N)cn2)n[nH]1` [Example 28, 5-[[5-[2-methoxy-4-[(1-methyl-4-piperidyl)oxy]phenyl]-1H-pyrazol-3-yl]amino]pyrazine-2-carbonitrile hydrochloride], the pIC50 at Chk-1 kinase (setting [1]) is 9.89. Moreover, in the assay on MIA PaCa-2 cells (Homo sapiens, MIA PaCa-2, 72 h, read-out: Chk1 IC50 (nM)), the IC50 worked out at 279 nM. Also, in the assay on MIA PaCa-2 cells, the “10xLS” value is on record as under 100 nM and the “2xLS” value is listed as under 3 nM.
In the case of `COc1cc(CNCc2ccc(F)cc2)ccc1-c1cc(Nc2cnc(C#N)cn2)n[nH]1` [Example 8, 5-(5-{4-[(4-fluoro-benzylamino)-methyl]-2-methoxy-phenyl}-1H-pyrazol-3-ylamino)-pyrazine-2-carbonitrile], the negative logarithm of the IC50 (pIC50) on Chk-1 kinase (setting [1]) is 10.24; with MIA PaCa-2 cells (Homo sapiens), 6.59. The “10xLS” value in the assay on MIA PaCa-2 cells is given as about 200 nM. For the same molecule, in the assay on MIA PaCa-2 cells, the “2xLS” value was determined as 10 nM.
In the case of `COc1cc(N2CCNCC2)ccc1-c1cc(Nc2cnc(C#N)cn2)n[nH]1` [Example 46, 5-[[5-(2-methoxy-4-piperazin-1-yl-phenyl)-1H-pyrazol-3-yl]amino]pyrazine-2-carbonitrile], the pIC50 is 10.27 on Chk-1 kinase and 6.35 in the assay with MIA PaCa-2 cells (Homo sapiens). In addition, in the assay on MIA PaCa-2 cells, the “10xLS” value is recorded as under 30 nM. For the same molecule, the “2xLS” value in the assay with MIA PaCa-2 cells is under 3 nM.
For the molecule `COc1cc(CNCC(C)C)ccc1-c1cc(Nc2cnc(C#N)cn2)n[nH]1` [Example 146, 5-[[5-[4-[(isobutylamino)methyl]-2-methoxy-phenyl]-1H-pyrazol-3-yl]amino]pyrazine-2-carbonitrile], the pIC50 at Chk-1 kinase (setting [1]) is 10.92; in the assay with MIA PaCa-2 cells (Homo sapiens), 6.36. For the same molecule, in the assay on MIA PaCa-2 cells, the “10xLS” value worked out at 100 nM. For the same molecule, in the assay on MIA PaCa-2 cells, the “2xLS” value was found to be 3 nM.
Taken in the same sequence, the figures for `COc1cc(CN[C@H]2CCOC2)ccc1-c1cc(Nc2cnc(C#N)cn2)n[nH]1` [Example 132, 5-[[5-[2-methoxy-4-[[[(3S)-tetrahydrofuran-3-yl]amino]methyl]phenyl]-1H-pyrazol-3-yl]amino]pyrazine-2-carbonitrile] were 9.96, 6.39, under 300 nM and 3 nM.

As a reminder, the pIC50 is the negative decadic logarithm of the IC50, by convention in mol/L. The term IC50 denotes the concentration that inhibits the measured activity by half.

The values are drawn from US10010547B2 (CASCADIAN THERAPEUTICS, INC., priority 2014, dated 2018).
